In patent US20100210649A1, “PYRIDAZINONES AND FURAN-CONTAINING COMPOUNDS” (Sloan-Kettering Institute for Cancer Research, priority 2006, published 2010):
Where two headings read alike, the source gives them in different places.

Tests used:
H1650 = experiment: Non Small Cell Lung Cancer proliferation assay (Alamar Blue reduction), H1650; format: cell-based, human; conditions: for IC50 / inhibition at 10 µM: Homo sapiens; for inhibition at 10 µM: NCI-H1650, primary screening
Summary of the method: (§1)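 Human NSCLC cells were seeded at 250 cells/well with compound at a final 1% DMSO and treated for 48 hours at 37° C. 1% DMSO served as the high control.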

H1975 = experiment: Non Small Cell Lung Cancer proliferation assay (Alamar Blue reduction), H1975; format: cell-based, human; conditions: for IC50 / inhibition at 10 µM: Homo sapiens; for inhibition at 10 µM: NCI-H1975, primary screening
Summary of the method: as §1

H2030 = experiment: Non Small Cell Lung Cancer proliferation assay (Alamar Blue reduction), H2030; format: cell-based, human; conditions: for IC50 / inhibition at 10 µM: Homo sapiens; for inhibition at 10 µM: NCI-H2030, primary screening
Summary of the method: as §1

H3255 = experiment: Non Small Cell Lung Cancer proliferation assay (Alamar Blue reduction), H3255; format: cell-based, human; conditions: for IC50 / inhibition at 10 µM: Homo sapiens; for inhibition at 10 µM: NCI-H3255, primary screening
Summary of the method: as §1

H358 = experiment: Non Small Cell Lung Cancer proliferation assay (Alamar Blue reduction), H358; format: cell-based; conditions: Homo sapiens, NCI-H358
Summary of the method: as §1

[1] = tested on: HPL1D (human peripheral lung epithelial) cell line; experiment: Cell proliferation / dose response (Alamar Blue), HPL1D; format: cell-based; conditions: HPL1D, 12 point doubling dilution 10 uM to 5 nM, 48 h treatment, alamar blue additional 48 h, read-out: IC50 HPL1D
Procedure: WI-38: human lung fibroblast cell line. […] WT: wildtype; WT*: over-expressed wildtype. Dose response studies against 34 compounds from the pyridazinone and phenylfuran-carboxamide class were conducted. […] In addition, Tarceva was included in these dose response studies. The dose response studies were done with the following standard procedure. […] The cells were incubated for 48 hours at 37 C to complete treatment, and then alamar blue was added for an additional 48 hours. Finally, alamar blue reduction was measured and the data was loaded into ORIS, our data screening acquisition platform.

H820 = experiment: Dose response study (Alamar Blue), H820; format: cell-based; conditions: Homo sapiens, NCI-H820; H820; 12 point doubling dilution 10 uM to 5 nM; 48 h treatment, alamar blue additional 48 h; read-out: IC50 H820
Procedure: (§2) Dose response studies against 34 compounds from the pyridazinone and phenylfuran-carboxamide class were conducted. […] In addition, Tarceva was included in these dose response studies.
(§3) The dose response studies were done with the following standard procedure. First, the cells were counted and dispensed at 250 cells/well into 384-well microplates with compound. The cells were incubated for 48 hours at 37 C to complete treatment, and then alamar blue was added for an additional 48 hours. Finally, alamar blue reduction was measured and the data was loaded into ORIS, our data screening acquisition platform.

H23 = experiment: Dose response study (Alamar Blue), H23; format: cell-based; conditions: Homo sapiens, NCI-H23; H23; 12 point doubling dilution 10 uM to 5 nM; 48 h treatment, alamar blue additional 48 h; read-out: IC50 H23
Procedure: as §2, §3

H2122 = experiment: Dose response study (Alamar Blue), H2122; format: cell-based; conditions: Homo sapiens, NCI-H2122; H2122; 12 point doubling dilution 10 uM to 5 nM; 48 h treatment, alamar blue additional 48 h; read-out: IC50 H2122
Procedure: as §2, §3

H2444 = experiment: Dose response study (Alamar Blue), H2444; format: cell-based; conditions: Homo sapiens, NCI-H2444; H2444; 12 point doubling dilution 10 uM to 5 nM; 48 h treatment, alamar blue additional 48 h; read-out: IC50 H2444
Procedure: as §2, §3

[2] = NCI-H1650, 48 h, H1650, 12 point doubling dilution 10 uM to 5 nM, 48 h treatment, alamar blue additional 48 h, read-out: IC50 H1650
[3] = NCI-H1650, dose response 10 M to 5 nM, IC50, read-out: Dose Response (uM) H1650
[4] = NCI-H1975, 48 h, H1975, 12 point doubling dilution 10 uM to 5 nM, 48 h treatment, alamar blue additional 48 h, read-out: IC50 H1975
[5] = NCI-H1975, dose response 10 M to 5 nM, IC50, read-out: Dose Response (uM) H1975
[6] = NCI-H2030, 48 h, H2030, 12 point doubling dilution 10 uM to 5 nM, 48 h treatment, alamar blue additional 48 h, read-out: IC50 H2030
[7] = NCI-H2030, dose response 10 M to 5 nM, IC50, read-out: Dose Response (uM) H2030
[8] = NCI-H3255, 48 h, H3255, 12 point doubling dilution 10 uM to 5 nM, 48 h treatment, alamar blue additional 48 h, read-out: IC50 H3255
[9] = NCI-H3255, dose response 10 M to 5 nM, IC50, read-out: Dose Response (uM) H3255
[10] = H358, 12 point doubling dilution 10 uM to 5 nM, 48 h treatment, alamar blue additional 48 h, read-out: IC50 H358
[11] = read-out: Dose Response (uM) H358
[12] = percentage inhibition, 10 μM compound in 1% DMSO (v/v)

SMILES | IC50 (H1650; [2]) [µM] | IC50 (H1650; [3]) [µM] | IC50 (H1975; [4]) [µM] | IC50 (H1975; [5]) [µM] | IC50 (H2030; [6]) [µM] | IC50 (H2030; [7]) [µM] | IC50 (H3255; [8]) [µM] | IC50 (H3255; [9]) [µM] | IC50 (H358; [10]) [µM] | IC50 (H358; [11]) [µM] | IC50 [1] [nM] | IC50 (H820) [nM] | IC50 (H23) [nM] | IC50 (H2122) [nM] | IC50 (H2444) [nM] | also measured
Cc1cccc(-n2ncc(Br)c(Br)c2=O)c1 [compound 267071] | 1.1 | 0.74 | 0.36 | 0.22 | 0.37 | 1.22 | 0.76 | 0.81 | 0.4 | 0.21 | 240 | 270 | 260 | 1260 | 310 | 
O=c1c(Cl)c(Cl)cnn1-c1cccc(C(F)(F)F)c1 [compound 176729] | 0.8 | 1.44 | 0.31 | 0.16 | 0.32 | 0.34 | 0.66 | 0.73 | 0.32 | 0.12 | 250 | 280 | 230 | 1500 | 210 | inhibition at 10 µM (H1650; 10 μM compound in 1% DMSO (v/v), read-out: percentage inhibition H1650): 100%; inhibition at 10 µM (H1975; 10 μM compound in 1% DMSO (v/v), read-out: percentage inhibition H1975): 102%; inhibition at 10 µM (H2030; 10 μM compound in 1% DMSO (v/v), read-out: percentage inhibition H2030): -3%; inhibition at 10 µM (H3255; 10 μM compound in 1% DMSO (v/v), read-out: percentage inhibition H3255): 115%
Cc1cccc(-n2ncc(I)c(I)c2=O)c1 [compound 267085] | 3.16 | 1.93 | 0.8 | 0.5 | 0.81 | 0.99 | 2.13 | 0.71 | 1.33 | 0.3 | 680 | 410 | 720 | 2340 | 530 | 
O=C(Nc1ccc(F)c(Cl)c1)c1ccc([N+](=O)[O-])o1 [compound 87200] | 7.49 |  | > 10 |  | 8.51 |  | > 10 |  | 7.17 |  | > 10000 | > 10000 | 4550 | > 10000 | > 10000 | IC50 (H1650; NCI-H1650, phenylfuran-2-carboxamide SAR summary, read-out: IC50(uM) 1650): 0.29 µM; inhibition at 10 µM (H1650; H1650, 10 μM compound in 1% DMSO (v/v), read-out: PRIMARY HTS [%] H1650 (percentage inhibition)): 103%; CONFIRMATION [%] 1650 (H1650; [12]): 112%; IC50 (H1975; NCI-H1975, phenylfuran-2-carboxamide SAR summary, read-out: IC50(uM) 1975): 0.44 µM; inhibition at 10 µM (H1975; H1975, 10 μM compound in 1% DMSO (v/v), read-out: PRIMARY HTS [%] H1975 (percentage inhibition)): 67%; CONFIRMATION [%] 1975 (H1975; [12]): 95%; IC50 (H2030; NCI-H2030, phenylfuran-2-carboxamide SAR summary, read-out: IC50(uM) 2030): 1.01 µM; inhibition at 10 µM (H2030; H2030, 10 μM compound in 1% DMSO (v/v), read-out: PRIMARY HTS [%] H2030 (percentage inhibition)): 23%; CONFIRMATION [%] 2030 (H2030; [12]): 107%; IC50 (H3255; NCI-H3255, phenylfuran-2-carboxamide SAR summary, read-out: IC50(uM) 3255): 0.69 µM; inhibition at 10 µM (H3255; H3255, 10 μM compound in 1% DMSO (v/v), read-out: PRIMARY HTS [%] H3255 (percentage inhibition)): 6%; CONFIRMATION [%] 3255 (H3255; [12]): 103%
COCCOc1cccc(-n2ncc(Br)c(Br)c2=O)c1 [compound 267084] | 1.04 | 1.51 | 0.21 | 0.23 | 0.22 | 0.61 | 0.71 | 0.38 | 0.27 | 0.13 | 180 | 180 | 170 | 1120 | 230 | 
COc1nn(-c2cccc(C)c2)c(=O)c(Cl)c1Cl [compound 257028] | 3.04 | 2.04 | 1.18 | 0.65 | 1.79 | 1.26 | 2.38 | 1.76 | 1.83 | 0.94 | 1930 | 770 | 680 | 4040 | 1170 | 
O=c1c(Cl)c(Cl)cnn1-c1ccccn1 [compound 267090] | 1.42 | 1.29 | 0.16 | 0.2 | 0.17 | 0.41 | 0.7 | 0.5 | 0.21 | 0.06 | 170 | 140 | 80 | 890 | 220 | 
O=c1c(Br)c(Br)cnn1-c1cccc(C(F)(F)F)c1 [compound 267072] | 2.09 | 0.54 | 0.93 | 0.2 | 0.85 |  | 1.64 | 1 | 0.85 | 0.15 | 510 | 820 | 840 | 4610 | 1050 | 
